Some results are limits rather than exact numbers.

One data set relates to primate. The conditions noted are these: Subchronic oral toxicity in nonrodent, Gavage/Intubation, dose end: 91 day, group: systemic, systemic / in life observation / clinical signs / ataxia + systemic / in life observation / clinical signs / convulsions + systemic / in ….
The test system of a further data set is dog. The following applies: Sub-acute repeat dose toxicity, beagle, Oral, Gavage/Intubation, dose end: 17 day, group: systemic.
For data set [1], the system named is mouse. The conditions noted are these: Carcinogenicity, cd1, Oral, Water, dose end: 24 month, group: systemic.
Data set [2] concerns rabbit. The following applies: Prenatal developmental toxicity study, new zealand white, Oral, Gavage/Intubation, dose end: 19 GD.
The test system of data set [3] is rat. The following applies: Subchronic dermal toxicity, sprague dawley, Topical, dose end: 13 week, group: systemic, systemic / in life observation / clinical signs / desquamation + systemic / in life observation / clinical signs / erythema + systemic / in ….
For data set [4], the system named is rat. The conditions noted are these: Combined chronic toxicity/carcinogenicity, sprague dawley, Oral, Water, dose end: 24 month, group: systemic.
In data set [5] the test system is rat. The following applies: Prenatal developmental toxicity study, sprague dawley, Oral, Gavage/Intubation, dose end: 17 GD, group: maternal.
In data set [6] the test system is rat. The following applies: Sub-acute repeat dose toxicity; sprague dawley; Oral; Gavage/Intubation; dose end: 4 week; group: systemic; systemic / clinical chemistry / alanine aminotransferase (alt/sgpt) / alanine aminotransferase (alt/sgpt) + systemic / clinical chemistry / ….
Data set [7] has as its system mouse. The following applies: Carcinogenicity; b6c3f1; Oral; Feed; dose end: 78 week; group: systemic; systemic / in life observation / body weight / body weight.
For data set [8], the system named is rat. The conditions noted are these: Carcinogenicity; fischer; Oral; Feed; dose end: 78 week; group: systemic; systemic / in life observation / body weight / body weight + systemic / pathology microscopic / bone marrow / atrophy.
Data set [9] deals with rat. The conditions noted are these: Prenatal developmental toxicity study, sprague dawley, Oral, Gavage/Intubation, dose end: 17 GD.
For data set [10], the system named is mouse. The conditions noted are these: Subchronic oral toxicity in rodents, b6c3f1, Water, dose end: 13 week, group: systemic.
Data set [11] relates to mouse. The conditions noted are these: Carcinogenicity, b6c3f1, Oral, Water, dose end: 104 week, group: systemic.
Data set [12] deals with rat. The conditions noted are these: Subchronic oral toxicity in rodents, sprague dawley, Water, dose end: 13 week, group: systemic.
Data set [13] concerns rat. The conditions noted are these: Combined chronic toxicity/carcinogenicity; sprague dawley; Oral; Water; dose end: 24 month; group: systemic; systemic / in life observation / mortality / mortality + systemic / pathology gross / kidney / calculus + systemic / pathology gross / ….
The test system of data set [14] is rabbit. The conditions noted are these: Prenatal developmental toxicity study, dutch, Oral, Gavage/Intubation, dose end: 18 GD.
The subject of data set [15] is rat. The following applies: Subchronic oral toxicity in rodents, other, Water, dose end: 90 day, group: systemic.
Data set [16] relates to rabbit. The following applies: Prenatal developmental toxicity study, chinchilla, Oral, Gavage/Intubation, dose end: 18 GD.
The subject of data set [17] is rat. The following applies: Prenatal developmental toxicity study, sprague dawley, Oral, Gavage/Intubation, dose end: 15 GD.
Where [18] appears, read: systemic / clinical chemistry / alanine aminotransferase (alt/sgpt) / alanine aminotransferase (alt/sgpt) + systemic / clinical chemistry / ….
The mark [19] stands for this setting: systemic / hematology / erythrocyte (rbc) count differential / erythrocyte (rbc) + systemic / hematology / hematocrit (hct) / hematocrit (….
Setting [20] is: group: developmental, developmental / developmental malformation / general / [other].
The mark [21] stands for this setting: group: maternal, systemic / in life observation / body weight / body weight + systemic / in life observation / body weight / body weight gain + systemic / in….
Setting [22] is: systemic / pathology microscopic / stomach / hyperkeratosis + systemic / pathology microscopic / stomach / hyperplasia + systemic / in life ….
The mark [23] stands for this setting: reproductive / reproductive performance / postimplantation loss / postimplantation loss + reproductive / reproductive performance / ….
Setting [24] is: group: developmental, developmental / developmental malformation / bone / fused + developmental / developmental malformation / brain / dilated cerebral ventricle.
[25] abbreviates: group: developmental, developmental / developmental malformation / bone / fused + developmental / developmental malformation / brain / dilated cerebral ventricle….
[26] abbreviates: group: maternal, reproductive / reproductive performance / resorptions / resorptions + reproductive / offspring survival early / dead fetuses / dead fetuses….
Where [27] appears, read: systemic / pathology gross / urinary bladder / calculus.
Setting [28] is: systemic / pathology gross / urinary bladder / calculus + systemic / pathology microscopic / urinary bladder / congestion.
The mark [29] stands for this setting: systemic / in life observation / clinical signs / distended abdomens + systemic / urinalysis / sodium / sodium.
Setting [30] is: systemic / clinical chemistry / protein / protein.
[31] abbreviates: systemic / pathology gross / urinary bladder / calculus + systemic / pathology microscopic / urinary bladder / hyperplasia.
The mark [32] stands for this setting: group: developmental, developmental / developmental malformation / general / crown-rump length + systemic / in life observation / body weight / fetal weight.
Setting [33] is: group: maternal, systemic / in life observation / body weight / body weight.
[34] abbreviates: systemic / in life observation / body weight / body weight + systemic / in life observation / clinical signs / fur (altered appearance) + ….
[35] abbreviates: group: developmental, developmental / developmental malformation / bone / unossified + systemic / in life observation / body weight / fetal weight.
[36] abbreviates: group: maternal, systemic / in life observation / body weight / body weight gain + systemic / in life observation / food consumption / food consumption.
Setting [37] is: group: maternal, systemic / in life observation / body weight / body weight gain + systemic / in life observation / food consumption / food consumption + ….
The mark [38] stands for this setting: group: developmental, developmental / developmental malformation / bone / incomplete ossification.

In general, LOAEL refers to the lowest dose or exposure tested at which an adverse effect was seen. One may read the NOAEL as the highest tested level that showed no adverse finding. With `Cl.NCC1(Cc2noc(=O)[nH]2)CCCCC1`, in the data set on primate, the LEL came out at 250 mg/kg/day, the LOAEL was > 1500 mg/kg/day, the NEL was determined as 50 mg/kg/day and the NOAEL is ≥ 1500 mg/kg/day.

As to `CC(C)(O)c1cnn2c(-c3ccc(F)c(-c4c(F)cccc4C#N)c3)cnc2n1`, in the data set with dog (setting [18]), the LOAEL was > 15 mg/kg/day, the NEL amounted to 0.5 mg/kg/day and the NOAEL is ≥ 15 mg/kg/day. For the same compound, in the data set on dog (systemic / clinical chemistry / albumin / albumin), the LEL amounted to 2.5 mg/kg/day.

As for `CN(C)N` [1,1-Dimethylhydrazine], in the data set on mouse [1] (setting [19]), the LEL was 1.41 mg/kg/day and the NEL amounted to 0.269 mg/kg/day. For the same compound, the LOAEL in the data set on mouse [1] (systemic / pathology microscopic / liver / hyperplasia + systemic / pathology microscopic / liver / pigmentation) came to 1.91 mg/kg/day. The no-observed-adverse-effect level (NOAEL) with mouse [1] (systemic / pathology microscopic / liver / hyperplasia + systemic / pathology microscopic / liver / pigmentation + systemic / in life …) was 0.97 mg/kg/day.

For `Cn1sc(Cl)cc1=O` [5-Chloro-2-methyl-3(2H)-isothiazolone], the LEL came to 8 mg/kg/day with rabbit [2] (setting [20]), 8 mg/kg/day in the data set with rabbit [2] (setting [21]), 0.75 mg/kg/day in the data set with rat [3] and 6.6 mg/kg/day with rat [4] (systemic / pathology microscopic / stomach / hyperkeratosis + systemic / pathology microscopic / stomach / hyperplasia + systemic / …). For the same compound, the LOAEL is 8 mg/kg/day in the data set with rabbit [2] (setting [20]), 8 mg/kg/day with rabbit [2] (setting [21]), 0.75 mg/kg/day in the data set on rat [3] and 6.6 mg/kg/day in the data set with rat [4] (systemic / pathology microscopic / stomach / hyperkeratosis + systemic / pathology microscopic / stomach / hyperplasia). In addition, the NEL is 2 mg/kg/day with rabbit [2] (setting [20]), 2 mg/kg/day in the data set on rabbit [2] (setting [21]), < 0.75 mg/kg/day in the data set on rat [3] and 2 mg/kg/day in the data set on rat [4] (setting [22]). Besides, the NOAEL with rabbit [2] (setting [20]) was 2 mg/kg/day; in the data set with rabbit [2] (setting [21]) it was 2 mg/kg/day; in the data set on rat [3] it was < 0.75 mg/kg/day; in the data set with rat [4] (setting [22]) it was 2 mg/kg/day.

As for `O=C(O)c1ccccc1-n1cc(C(=O)O)c(=O)c2cc(Nc3c(F)cc(F)cc3Cl)c(Cl)cc21` [AVE9423], in the data set with rat [5] (setting [23]), the LOAEL is > 1000 mg/kg/day, the NEL stood at 40 mg/kg/day and the NOAEL is ≥ 1000 mg/kg/day. Moreover, the LEL in the data set on rat [5] (reproductive / reproductive performance / postimplantation loss / postimplantation loss + systemic / in life observation / body weight / …) was 200 mg/kg/day. Moreover, in the data set on rat [6], the LEL is 200 mg/kg/day, the LOAEL was determined as 200 mg/kg/day, the NEL came out at 20 mg/kg/day and the NOAEL came out at 20 mg/kg/day.

As for `CCc1nc(N)nc(N)c1-c1ccc(Cl)cc1` [Pyrimethamine], the LEL in the data set with mouse [7] was found to be 75 mg/kg/day; with rat [8] it was 10 mg/kg/day; with rat [9] (setting [24]) it was 1.2 mg/kg/day; with rat [9] (setting [26]) it was 2.7 mg/kg/day. The LOAEL was > 150 mg/kg/day in the data set on mouse [7], > 20 mg/kg/day with rat [8], > 2.7 mg/kg/day in the data set with rat [9] (setting [25]) and > 2.7 mg/kg/day in the data set on rat [9] (setting [26]). Besides, the NEL is < 75 mg/kg/day in the data set on mouse [7]; < 10 mg/kg/day in the data set on rat [8]; < 1.2 mg/kg/day in the data set on rat [9] (setting [24]); 1.2 mg/kg/day in the data set on rat [9] (group: maternal, reproductive / reproductive performance / resorptions / resorptions). Also, the NOAEL in the data set with mouse [7] is ≥ 150 mg/kg/day; with rat [8], ≥ 20 mg/kg/day; in the data set on rat [9] (setting [25]), ≥ 2.7 mg/kg/day; in the data set with rat [9] (setting [26]) it was ≥ 2.7 mg/kg/day.

As to `O=c1[n-]c(=O)[nH]c(=O)[nH]1.[Na+]` [Sodium cyanurate], the LEL in the data set on mouse [10] (setting [27]) is 252 mg/kg/day; in the data set on mouse [11] (systemic / in life observation / body weight / body weight gain), 100 mg/kg/day; in the data set on rat [12] (setting [30]), 132 mg/kg/day; in the data set on rat [13], 371 mg/kg/day; with rabbit [14] (setting [32]), 500 mg/kg/day; in the data set on rabbit [14] (setting [33]) it was 200 mg/kg/day. Moreover, the NEL with mouse [10] (setting [27]) is < 252 mg/kg/day; in the data set with mouse [11] (systemic / in life observation / body weight / body weight gain + systemic / in life observation / clinical signs / distended abdomens + …), 25.9 mg/kg/day; with rat [12] (setting [30]), < 132 mg/kg/day; in the data set with rat [13], 154 mg/kg/day; with rabbit [14] (setting [32]), 200 mg/kg/day; in the data set on rabbit [14] (setting [33]) it was 50 mg/kg/day. For the same compound, the LOAEL with mouse [10] (setting [28]) was 1990 mg/kg/day; in the data set with mouse [11] (setting [29]), > 1520 mg/kg/day; in the data set with rat [12] (setting [31]), > 672 mg/kg/day; with rat [13] it was 371 mg/kg/day; in the data set on rabbit [14] (setting [32]), 500 mg/kg/day; in the data set on rabbit [14] (setting [33]), 200 mg/kg/day. In addition, the NOAEL in the data set with mouse [10] (setting [28]) was 522 mg/kg/day; in the data set on mouse [11] (setting [29]) it was ≥ 1520 mg/kg/day; in the data set on rat [12] (setting [31]) it was ≥ 672 mg/kg/day; with rat [13], 154 mg/kg/day; in the data set on rabbit [14] (setting [32]), 200 mg/kg/day; in the data set on rabbit [14] (setting [33]) it was 50 mg/kg/day.

Consider `CCCCCCCCCCCCCC[P+](CCCC)(CCCC)CCCC.[Cl-]` [Tributyltetradecylphosphonium chloride], for which the LOAEL in the data set on rat [15] (setting [34]) turned out to be 27.2 mg/kg/day; in the data set on rabbit [16] (setting [35]) it was 11.2 mg/kg/day; in the data set with rabbit [16] (setting [36]) it was 11.2 mg/kg/day; in the data set on rat [17] (setting [38]) it was 30 mg/kg/day; with rat [17] (setting [21]), 120 mg/kg/day. The NEL in the data set on rat [15] (setting [34]) stood at 2.56 mg/kg/day; with rabbit [16] (setting [35]) it was 3.75 mg/kg/day; in the data set with rabbit [16] (setting [37]) it was 3.75 mg/kg/day; in the data set on rat [17] (setting [38]), 10 mg/kg/day; with rat [17] (setting [21]), 20 mg/kg/day. In addition, the NOAEL in the data set with rat [15] (setting [34]) came to 8.66 mg/kg/day; with rabbit [16] (setting [35]) it was 3.75 mg/kg/day; in the data set with rabbit [16] (setting [37]), 3.75 mg/kg/day; in the data set with rat [17] (setting [38]), 10 mg/kg/day; with rat [17] (setting [21]) it was 60 mg/kg/day. Moreover, the LEL with rat [15] (systemic / organ weight / kidney / relative to body weight) is 8.66 mg/kg/day; in the data set with rabbit [16] (setting [35]), 11.2 mg/kg/day; in the data set with rabbit [16] (setting [36]), 11.2 mg/kg/day; in the data set on rat [17] (setting [38]), 30 mg/kg/day; in the data set on rat [17] (group: maternal, systemic / in life observation / food consumption / food consumption + systemic / in life observation / clinical signs / respiration (…) it was 60 mg/kg/day.

Source of the values: EPA's ToxRefDB 2.
